Volatility data for one compound are collected here from patent publication US11578012B2, “Use of N-functionalized alkoxy pyrazole compounds as nitrification inhibitors” (BASF SE, priority 2018, dated 2023).

A short description of the series: volatility (statement on prior-art compound). In kind it is physicochemical. Particulars: qualitative statement, no method given.

For the compound `CCOc1cc(C)[nH]n1` [3-ethoxy-5-methylpyrazole], the volatility result is on record as “high volatility”.
